Laboratory results from US7790761B2, “Blockade of voltage dependent sodium channels” (University College London, priority 2000, dated 2010).
Values joined by “and” are separate entries in the source; they are usually repeats but may differ in a detail not shown here. Equal entries are not always repeated.

Experiments:
optic nerve = assay: tissue or blood; assay type: cell-based; details: Rattus norvegicus; 30 μM of each drug; OGD 1 h; cGMP accumulation; compared with protection achieved by TTX; read-out: % protection accorded
sodium channels = assay: [14C]-labelled guanidine flux through sodium channels; assay type: biochemical, rat; details: inhibition of flux of [14C]-labelled guanidine through sodium channels

Compound | inhibition at 30 µM (optic nerve) [%] | IC50 (sodium channels) | IC50 (sodium channels; listed as 5-tert-Butyl-2-methyl-2H-pyrazole-3-carboxylic acid (4-tert-butyl-phenyl)-amide) [µM]
Cn1nc(C(C)(C)C)cc1C(=O)Nc1ccc(Cl)cc1 [5-tert-Butyl-2-methyl-2H-pyrazole-3-carboxylic acid (4-chloro-phenyl)-amide] | 62 | 6 µM | 
Cn1c(SCc2ccccc2)nnc1-c1cc(C(C)(C)C)nn1Cc1ccc(F)cc1 [3-Benzylsulfanyl-5-[5-tert-butyl-2-(4-fluoro-benzyl)-2H-pyrazol-3-yl]-4-methyl-4H-[1,2,4]triazole] | 72 | 12 µM and 12.3 µM | 
Cc1cc(C(=O)Nc2ccc(C(C)(C)C)cc2)nn1C(C)(C)C [1-tert-Butyl-5-methyl-1H-pyrazole-3-carboxylic acid (4-tert-butyl-phenyl)-amide] | 39 | 6 µM | 
Cn1c(SCC(=O)c2ccc(Cl)cc2)nnc1-c1cc(C(C)(C)C)nn1Cc1ccc(F)cc1 [2-{5-[5-tert-Butyl-2-(4-fluoro-benzyl)-2H-pyrazol-3-yl]-4-methyl-4H-[1,2,4]triazol-3-ylsulfanyl}-1-(4-chloro-phenyl)-ethanone] | 19 | 4.6 µM | 
Cc1ccc(NC(=O)c2cc(C(C)(C)C)nn2Cc2ccccc2)cc1 [2-Benzyl-5-tert-butyl-2H-pyrazole-3-carboxylic acid p-tolylamide] | 66 | 2 µM | 
NCc1noc(-c2nn(Cc3ccccc3)c3ccccc23)n1 [Example 51, 1-Benzyl-3-[3-aminomethyl-1,2,4-oxadiazol-yl]indazole] |  | 22.4 µM | 
O=C(NO)c1ccc(-c2nn(Cc3ccccc3)c3ccccc23)o1 [Example 6, 1-Benzyl-3-(5-hydroxylaminocarbonyl-2-furyl)-1H-indazole] |  | 30.9 µM | 
CCn1nc(-c2cccs2)cc1C(=O)Nc1ccc(Cl)cc1 [Example 13, 2-Ethyl-5-thiophen-2-yl-2H-pyrazole-3-carboxylic acid (4-chloro-phenyl)-amide] |  | 17 µM | 
CC(C)(C)c1cc(C(=O)Nc2ccccc2)n(Cc2ccccc2)n1 [Example 9, 2-Benzyl-5-tert-butyl-2H-pyrazole-3-carboxylic acid phenylamide] |  | < 9 µM | 
CC(=O)Nc1ccc(NC(=O)c2cc(C)n(C(C)(C)C)n2)cc1 [Example 36, 1-tert-Butyl-5-methyl-1H-pyrazole-3-carboxylic acid (4-acetylamino-phenyl)-amide] |  | 23 µM | 
CCOC(=O)CSc1nnc(-c2cc(C(C)(C)C)nn2Cc2cccc(C)c2)n1C1CCCCC1 [Ethyl 2-([5-[3-(tert-butyl)-1-(3-methylbenzyl)-1H-pyrazol-5-yl]-4-cyclohexyl-4H-1,2,4-triazol-3-yl]thio)acetate] |  | < 9 µM | 
Cc1ccc(Cn2nc(C(=O)Nc3ccccc3)cc2C)cc1 [5-Methyl-1-(4-methyl-benzyl)-1H-pyrazole-3-carboxylic acid phenylamide] |  | 23 µM | 
Cc1cccc(NC(=O)c2cc(C)n(Cc3c(Cl)cccc3Cl)n2)c1 [1-(2,6-Dichloro-benzyl)-5-methyl-1H-pyrazole-3-carboxylic acid m-tolylamide] | 29 | 7 µM | 
CN(C)c1ccc(NC(=O)c2cc(-c3ccccc3)n(-c3ccc(Cl)cc3)n2)cc1 [Example 19, 1-(4-Chloro-phenyl)-5-phenyl-1H-pyrazole-3-carboxylic acid (4-dimethylamino-phenyl)-amide] |  | 5 µM | 
CC(C)(C)c1cc(C(=O)Nc2ccc(Cl)nc2)n(Cc2ccccc2)n1 [Example 34, 2-Benzyl-5-tert-butyl-2H-pyrazole-3-carboxylic acid (6-chloro-pyridin-3-yl)-amide] |  | < 9 µM | 
CC(C)(C)c1cc(C(=O)Nc2cccc(C(=O)Nc3ccccc3)c2)n(Cc2ccccc2)n1 [Example 32, 2-Benzyl-5-tert-butyl-2H-pyrazole-3-carboxylic acid (3-phenylcarbamoyl-phenyl)-amide] |  | 22 µM | 
CCn1nc(-c2cccs2)cc1C(=O)Nc1ccc(NC(C)=O)cc1 [Example 40, 2-Ethyl-5-thiophen-2-yl-2H-pyrazole-3-carboxylic acid (4-acetylamino-phenyl)-amide] |  | < 9 µM | 
Cc1cc(C(=O)Nc2ncccc2OCc2ccccc2)nn1C(C)(C)C [Example 37, 1-tert-Butyl-5-methyl-1H-pyrazole-3-carboxylic acid (3-benzyloxy-pyridin-2-yl)-amide] |  | < 9 µM | 
C#CCSc1nnc(-c2cc(C(C)(C)C)nn2Cc2ccc(Cl)cc2Cl)n1-c1ccccc1 [3-[3-(tert-Butyl)-1-(2,4-dichlorobenzyl)-1H-pyrazol-5-yl]-4-phenyl-5-(prop-2-ynylthio)-4H-1,2,4-tziazole] |  | 18 µM | 
CC(C)(C)c1cc(C(=O)NNC(=O)Nc2cccc(Cl)c2)n(Cc2ccccc2)n1 [2-Benzyl-5-tert-butyl-2H-pyrazole-3-carboxylic acid N′-(3-chlorophenylcarbamoyl) hydrazide] | 12 | 5.8 µM | 
Cn1nc(C(C)(C)C)cc1C(=O)Nc1ccc(C(C)(C)C)cc1 [Example 26, 5-tert-Butyl-2-methyl-2H-pyrazole-3-carboxylic acid (4-tert-butyl-phenyl)-amide] | 18 | < 9 µM | 2

Compound | inhibition at 30 µM (optic nerve) [%] | IC50 (sodium channels) | IC50 (sodium channels; listed as 5-tert-Butyl-2-methyl-2H-pyrazole-3-carboxylic acid (4-tert-butyl-phenyl)-amide) [µM]
CC(C)(C)c1cc(C(=O)NCCc2ccccc2)n(Cc2ccc(Cl)cc2Cl)n1 [Example 15, 5-tert-Butyl-2-(2,4-dichloro-benzyl)-2H-pyrazole-3-carboxylic acid phenethyl-amide] |  | 10 µM | 
CCNCCCCc1nn(Cc2ccccc2)c2ccccc12 [Example 46, [N-Ethyl-(4-Aminobutyl)]-1-benzylindazole] |  | 15.5 µM | 
Cc1cc(C(=O)Nc2ccc(C(C)(C)C)cc2)n(C(C)(C)C)n1 [Example 21, 2-tert-Butyl-5-methyl-2H-pyrazole-3-carboxylic acid (4-tert-butyl-phenyl)-amide] |  | < 9 µM | 
CC(C)(C)c1cc(C(=O)Nc2ccccc2)n(Cc2ccc(Cl)cc2Cl)n1 [Example 17, 5-tert-Butyl-2-(2,4-dichloro-benzyl)-2H-pyrazole-3-carboxylic acid phenylamide] |  | 10 µM | 
O=C(Nc1ccccc1)c1cc(-c2ccccc2)n(-c2ccc(Cl)cc2)n1 [Example 11, 1-(4-Chloro-phenyl)-5-phenyl-1H-pyrazole-3-carboxylic acid phenylamide] |  | 18 µM | 
CC(C)(C)c1cc(C(=O)Nc2ccc(Cl)cc2)n(Cc2ccc(Cl)cc2Cl)n1 [Example 14, (S)-5-tert-Butyl-2-(2,4-dichloro-benzyl)-2H-pyrazole-3-carboxylic acid (4-chloro-phenyl)-amide] |  | 29 µM | 
Cn1nc(C(C)(C)C)cc1C(=O)Nc1cccc(-c2cnco2)c1 [Example 29, 5-tert-Butyl-2-methyl-2H-pyrazole-3-carboxylic acid (3-oxazol-5-yl-phenyl)-amide] |  | 9 µM | 
CC(C)(C)c1cc(C(=O)Nc2nc(-c3cccnc3)cs2)n(Cc2ccc(Cl)cc2Cl)n1 [Example 41, 5-tert-Butyl-2-(2,4-dichloro-benzyl)-2H-pyrazole-3-carboxylic acid (4-(pyridin-3-yl)thiazol-2-yl)-amide] |  | 14 µM | 
Cc1ccc(Cn2nc(C)cc2C(=O)Nc2cccc(C(F)(F)F)c2)cc1 [5-Methyl-2-(4-methyl-benzyl)-2H-pyrazole-3-carboxylic acid (3-trifluoromethyl-phenyl)-amide] |  | 6 µM | 
COc1ccc(Cc2noc(NC(=O)c3cc(C(C)(C)C)nn3C)n2)cc1 [Example 45, 5-tert-Butyl-2-methyl-2H-pyrazole-3-carboxylic acid [3-(4-methoxy-benzyl)-[1,2,4]oxadiazol-5-yl]-amide] |  | 19 µM | 
CC(C)(C)c1cc(C(=O)Nc2ccc(Cl)c(Cl)c2)n(Cc2ccccc2)n1 [Example 24, 2-Benzyl-5-tert-butyl-2H-pyrazole-3-carboxylic acid (3,4-dichloro-phenyl)-amide] |  | < 9 µM | 
5-[3-tert-Butyl-1-(2,4-dichlorobenzyl)pyrazol-5-yl]-4-methyltriazole-3-thiol |  | < 9 µM | 
Cc1cc(C(=O)Nc2ccc(Cl)nc2)nn1C(C)(C)C [Example 35, 1-tert-Butyl-5-methyl-1H-pyrazole-3-carboxylic acid (6-chloro-pyridin-3-yl)-amide] |  | 5 µM | 
Cn1c(SCC(=O)C(C)(C)C)nnc1-c1cc(C(C)(C)C)nn1Cc1ccc(F)cc1 [1-{5-[5-tert-Butyl-2-(4-fluoro-benzyl)-2H-pyrazol-3-yl]-4-methyl-4H-[1,2,4]triazol-3-ylsulfanyl}-3,3-dimethyl-butan-2-one] |  | 13 µM | 
CC(C)(C)c1cc(C(=O)Nc2ccc(Cl)cc2)n(Cc2ccccc2)n1 [2-Benzyl-5-tert-butyl-2H-pyrazole-3-carboxylic acid (4-chloro-phenyl)-amide] |  | 4.4 µM | 
Cc1cc(C(=O)Nc2ccc(Cl)c(Cl)c2)n(C(C)(C)C)n1 [Example 22, 2-tert-Butyl-5-methyl-2H-pyrazole-3-carboxylic acid (3,4-dichloro-phenyl)-amide] |  | < 9 µM | 
CC(=O)Nc1ccc(NC(=O)c2cc(C(C)(C)C)nn2Cc2ccccc2)cc1 [Example 43, 2-Benzyl-5-tert-butyl-2H-pyrazole-3-carboxylic acid (4-acetylamino-phenyl)-amide] |  | 16 µM | 
CC(C)(C)c1ccc(NC(=O)c2cc(-c3ccccc3)n(-c3ccc(Cl)cc3)n2)cc1 [Example 20, 1-(4-Chloro-phenyl)-5-phenyl-1H-pyrazole-3-carboxylic acid (4-tert-butyl-phenyl)-amide] |  | 20 µM | 
Cn1nc(C(C)(C)C)cc1C(=O)Nc1ccc(Cl)c(Cl)c1 [Example 23, 5-tert-Butyl-2-methyl-2H-pyrazole-3-carboxylic acid (3,4-dichloro-phenyl)-amide] |  | < 9 µM | 
Cc1cc(C(=O)Nc2ccc(C(=O)Nc3ccccc3)cc2)n(C(C)(C)C)n1 [Example 31, 2-tert-Butyl-5-methyl-2H-pyrazole-3-carboxylic acid (4-phenylcarbamoyl-phenyl)-amide] |  | 22 µM | 
CC(C)(C)c1cc(C(=O)Nc2ccc(Br)c(Cl)c2)n(Cc2ccccc2)n1 [2-Benzyl-5-tert-butyl-2H-pyrazole-3-carboxylic acid (4-bromo-3-chloro-phenyl)-amide] |  | 3 µM | 
